These results are taken from ChEMBL document CHEMBL4699440, “Comprehensive review on the anti-bacterial activity of 1,2,3-triazole hybrids” (Eur J Med Chem, 2019).

SMILES strings stand for the structures. Converted amounts (≈) assume the structure as drawn.

What all share (assay type): functional
Test [1] has as its system Pseudomonas aeruginosa. The test can be described thus: Antibacterial activity against Pseudomonas aeruginosa MTCC 424 by serial dilution method.
Test [2] has as its system Candida albicans. The test is described as follows: Antibacterial activity against Candida albicans MTCC 227 by serial dilution method.
Test [3] concerns Escherichia coli. The test is described as follows: Antibacterial activity against Escherichia coli MTCC […] by serial dilution method.
In test [4] the test system is Staphylococcus epidermidis. The test can be described thus: Antibacterial activity against Staphylococcus epidermidis MTCC 6880 by serial dilution method.
Test [5] has as its system Aspergillus niger. The test can be described thus: Antibacterial activity against Aspergillus niger MTCC 8189 by serial dilution method.
Test [6] has as its system Bacillus subtilis. The test is described as follows: Antibacterial activity against Bacillus subtilis MTCC 441 by serial dilution method.
For test [7], the system named is Aspergillus niger. The test can be described thus: Antibacterial activity against Aspergillus niger ATCC 9029 incubated for 24 hrs by broth microdilution method.
In test [8] the test system is Escherichia coli. The test can be described thus: Antibacterial activity against Escherichia coli ATCC 25922 incubated for 24 hrs by broth microdilution method. (In general: Dilution methods test growth across graded concentrations, often in twofold steps.)
The test system of test [9] is Pseudomonas aeruginosa. The test is described as follows: Antibacterial activity against Pseudomonas aeruginosa ATCC 25619 incubated for 24 hrs by broth microdilution method.
Test [10] deals with Bacillus subtilis. The test is described as follows: Antibacterial activity against Bacillus subtilis ATCC 6051 incubated for 24 hrs by broth microdilution method.
Test [11] has as its system Candida albicans. The test is described as follows: Antifungal activity against Candida albicans ATCC 2091 incubated for 24 hrs by broth microdilution method.
For test [12], the system named is Staphylococcus aureus. The test is described as follows: Antibacterial activity against Staphylococcus aureus ATCC 12598 incubated for 24 hrs by broth microdilution method.
Test [13] has as its system Staphylococcus aureus. The test can be described thus: Antibacterial activity against Staphylococcus aureus assessed as inhibition zone at 1 mg/ml measured after overnight incubation by disc diffusion method. The settings on record: read-out: IZ. (Agar diffusion results depend on both activity and mobility in agar.)
Test [14] has as its system Bacillus subtilis. The test is described as follows: Antibacterial activity against Bacillus subtilis assessed as inhibition zone at 1 mg/ml measured after overnight incubation by disc diffusion method. The settings on record: read-out: IZ.
For test [15], the system named is Escherichia coli. The test is described as follows: Antibacterial activity against Escherichia coli assessed as inhibition zone at 1 mg/ml measured after overnight incubation by disc diffusion method. The settings on record: read-out: IZ.
Test [16] has as its system Pseudomonas aeruginosa. The test can be described thus: Antibacterial activity against Pseudomonas aeruginosa assessed as inhibition zone at 1 mg/ml measured after overnight incubation by disc diffusion method. The settings on record: read-out: IZ.

As for `Cc1cc(O)c(C(=O)/C=C/c2ccc(OCc3cn(Cc4ccccc4C)nn3)cc2)c(=O)o1`, the MIC (in the test with Pseudomonas aeruginosa [1]; in the test with Candida albicans [2]; in the test with Escherichia coli [3]; in test [4]; in the test with Aspergillus niger [5]; in the test with Bacillus subtilis [6]) was 3 µM (≈ 1.37 µg/mL) throughout.
For `COc1ccc2oc(=O)cc(Cn3nnc(C)c3C(=O)O)c2c1`, the MIC (commonly the lowest concentration found to suppress growth) in the test with Aspergillus niger [7] turned out to be 0.2 µg/mL (≈ 0.634 µM); against Escherichia coli [8] it was 0.2 µg/mL (≈ 0.634 µM); in the test with Pseudomonas aeruginosa [9] it was 25 µg/mL (≈ 79.3 µM); in the test with Bacillus subtilis [10] it was 25 µg/mL (≈ 79.3 µM); against Candida albicans [11], 0.2 µg/mL (≈ 0.634 µM); against Staphylococcus aureus [12], 0.2 µg/mL (≈ 0.634 µM).
`COc1ccccc1-n1cc(CNc2ccccc2-c2nnc(-c3ccccc3)o2)nn1`: the zone of inhibition at 1000 µg/mL in the test on Staphylococcus aureus [13], with Bacillus subtilis [14], with Escherichia coli [15] and in the test with Pseudomonas aeruginosa [16] was 2.5 mm in each case.
Take `Cc1cc(O)c(C(=O)/C=C/c2ccc(OCc3cn(Cc4cccc(Br)c4)nn3)cc2)c(=O)o1`: the MIC (in the test with Pseudomonas aeruginosa [1]; against Candida albicans [2]; in the test with Escherichia coli [3]; in test [4]; in the test with Aspergillus niger [5]; against Bacillus subtilis [6]) was 3 µM (≈ 1.57 µg/mL) throughout.
Regarding `CC1COc2c(N3CCN(C)CC3)c(F)cc3c(=O)c(C(=O)O)cn1c23` (stereo unspecified) [OFLOXACIN], the zone of inhibition at 1000 µg/mL in the test on Staphylococcus aureus [13], in the test on Bacillus subtilis [14], in the test with Escherichia coli [15] and with Pseudomonas aeruginosa [16] was 2.5 mm throughout.
Consider `Cc1ccc2c(Cn3nnc(C)c3C(=O)O)cc(=O)oc2c1`, for which the MIC in the test with Aspergillus niger [7] was 0.2 µg/mL (≈ 0.668 µM); against Escherichia coli [8] it was 0.2 µg/mL (≈ 0.668 µM); against Pseudomonas aeruginosa [9], 25 µg/mL (≈ 83.5 µM); in the test on Bacillus subtilis [10], 25 µg/mL (≈ 83.5 µM); against Candida albicans [11] it was 0.2 µg/mL (≈ 0.668 µM); with Staphylococcus aureus [12] it was 0.2 µg/mL (≈ 0.668 µM).
In the case of `Cc1ccc2oc(=O)cc(Cn3nnc(C)c3C(=O)O)c2c1`, the MIC against Aspergillus niger [7] turned out to be 0.2 µg/mL (≈ 0.668 µM); against Escherichia coli [8], 0.4 µg/mL (≈ 1.34 µM); in the test on Pseudomonas aeruginosa [9], 25 µg/mL (≈ 83.5 µM); against Bacillus subtilis [10] it was 25 µg/mL (≈ 83.5 µM); against Candida albicans [11] it was 0.2 µg/mL (≈ 0.668 µM); in the test with Staphylococcus aureus [12], 0.2 µg/mL (≈ 0.668 µM).
For `COc1ccc(-n2cc(COc3ccc(/C=C/C(=O)c4c(O)cc(C)oc4=O)cc3)nn2)cc1`, the MIC (against Pseudomonas aeruginosa [1]; against Candida albicans [2]; with Escherichia coli [3]; in [4]; with Aspergillus niger [5]; in the test with Bacillus subtilis [6]) was 3.4 µM (≈ 1.56 µg/mL) each time.
As for `Cc1ccc2c(Cn3nnc(N)c3C#N)cc(=O)oc2c1`, the minimal inhibitory concentration (MIC) came out at 0.2 µg/mL (≈ 0.711 µM) in the test on Aspergillus niger [7]; 0.2 µg/mL (≈ 0.711 µM) against Escherichia coli [8]; 25 µg/mL (≈ 88.9 µM) against Pseudomonas aeruginosa [9]; 25 µg/mL (≈ 88.9 µM) against Bacillus subtilis [10]; 0.2 µg/mL (≈ 0.711 µM) in the test with Candida albicans [11]; 0.2 µg/mL (≈ 0.711 µM) with Staphylococcus aureus [12].
Turning to `Cc1cc(O)c(C(=O)/C=C/c2ccc(OCc3cn(Cc4cccc(F)c4)nn3)cc2)c(=O)o1`, the MIC (against Pseudomonas aeruginosa [1]; in the test with Candida albicans [2]; with Escherichia coli [3]; in [4]; with Aspergillus niger [5]; in the test on Bacillus subtilis [6]) was 3 µM (≈ 1.38 µg/mL) in each case.
As to `Cc1cc(O)c(C(=O)/C=C/c2ccc(OCc3cn(Cc4ccccc4Br)nn3)cc2)c(=O)o1`, the MIC (in the test on Pseudomonas aeruginosa [1]; against Candida albicans [2]; with Escherichia coli [3]; in [4]; with Aspergillus niger [5]; with Bacillus subtilis [6]) was 3 µM (≈ 1.57 µg/mL) in each case.
`Cc1ccc2oc(=O)cc(Cn3nnc(N)c3C#N)c2c1`: the MIC was determined as 0.2 µg/mL (≈ 0.711 µM) in the test on Aspergillus niger [7]; 0.4 µg/mL (≈ 1.42 µM) in the test with Escherichia coli [8]; 25 µg/mL (≈ 88.9 µM) in the test on Pseudomonas aeruginosa [9]; 25 µg/mL (≈ 88.9 µM) with Bacillus subtilis [10]; 0.2 µg/mL (≈ 0.711 µM) in the test with Candida albicans [11]; 1.6 µg/mL (≈ 5.69 µM) against Staphylococcus aureus [12].
Turning to `Cc1cc(O)c(C(=O)/C=C/c2ccc(OCc3cn(Cc4ccccc4[N+](=O)[O-])nn3)cc2)c(=O)o1`, the MIC (against Pseudomonas aeruginosa [1]; in the test with Candida albicans [2]; in the test on Escherichia coli [3]; in test [4]; against Aspergillus niger [5]; with Bacillus subtilis [6]) was 3 µM (≈ 1.47 µg/mL) each time.
Consider `N#Cc1c(N)nnn1Cc1cc(=O)oc2ccc3c(c12)OCO3`, for which the minimum inhibitory concentration (MIC) against Aspergillus niger [7] is 0.2 µg/mL (≈ 0.643 µM); in the test with Escherichia coli [8], 0.2 µg/mL (≈ 0.643 µM); against Pseudomonas aeruginosa [9], 25 µg/mL (≈ 80.3 µM); in the test on Bacillus subtilis [10] it was 25 µg/mL (≈ 80.3 µM); with Candida albicans [11], 0.2 µg/mL (≈ 0.643 µM); with Staphylococcus aureus [12], 0.2 µg/mL (≈ 0.643 µM).
For the compound `CCOC(=O)c1c(C)nnn1Cc1cc(=O)oc2ccc3c(c12)OCO3`, the MIC with Aspergillus niger [7] was 0.2 µg/mL (≈ 0.56 µM); against Escherichia coli [8], 0.2 µg/mL (≈ 0.56 µM); in the test with Pseudomonas aeruginosa [9], 25 µg/mL (≈ 70 µM); against Bacillus subtilis [10], 25 µg/mL (≈ 70 µM); against Candida albicans [11], 0.2 µg/mL (≈ 0.56 µM); with Staphylococcus aureus [12], 0.2 µg/mL (≈ 0.56 µM).
